This is an account of results in BindingDB's records for PubMed 2176210 (Ciba-Geigy, 1990).

Structures are written as SMILES. A value given as a limit tells only on which side of the number the result lay.

What all share (assay): Kinase Assay
The target in experiment [1] is Protein kinase C alpha type (Homo sapiens, UniProt P17252).
Experiment [2] has as its target cAMP-dependent protein kinase catalytic subunit alpha (Homo sapiens, UniProt P17612).
Experiment [3] concerns the target Tyrosine-protein kinase CSK (Homo sapiens, UniProt P41240).
For experiment [4], the target named is Tyrosine-protein kinase ABL1 (Homo sapiens, UniProt P00519).
Experiment [5] has as its target Epidermal growth factor receptor (Homo sapiens, UniProt P00533). Here is the method: Determination of EGF receptor kinase activity was performed as described using A431 membranes as the enzyme source and agiotensin II as substrate.

Chain of Epidermal growth factor receptor (P00533 whole entry): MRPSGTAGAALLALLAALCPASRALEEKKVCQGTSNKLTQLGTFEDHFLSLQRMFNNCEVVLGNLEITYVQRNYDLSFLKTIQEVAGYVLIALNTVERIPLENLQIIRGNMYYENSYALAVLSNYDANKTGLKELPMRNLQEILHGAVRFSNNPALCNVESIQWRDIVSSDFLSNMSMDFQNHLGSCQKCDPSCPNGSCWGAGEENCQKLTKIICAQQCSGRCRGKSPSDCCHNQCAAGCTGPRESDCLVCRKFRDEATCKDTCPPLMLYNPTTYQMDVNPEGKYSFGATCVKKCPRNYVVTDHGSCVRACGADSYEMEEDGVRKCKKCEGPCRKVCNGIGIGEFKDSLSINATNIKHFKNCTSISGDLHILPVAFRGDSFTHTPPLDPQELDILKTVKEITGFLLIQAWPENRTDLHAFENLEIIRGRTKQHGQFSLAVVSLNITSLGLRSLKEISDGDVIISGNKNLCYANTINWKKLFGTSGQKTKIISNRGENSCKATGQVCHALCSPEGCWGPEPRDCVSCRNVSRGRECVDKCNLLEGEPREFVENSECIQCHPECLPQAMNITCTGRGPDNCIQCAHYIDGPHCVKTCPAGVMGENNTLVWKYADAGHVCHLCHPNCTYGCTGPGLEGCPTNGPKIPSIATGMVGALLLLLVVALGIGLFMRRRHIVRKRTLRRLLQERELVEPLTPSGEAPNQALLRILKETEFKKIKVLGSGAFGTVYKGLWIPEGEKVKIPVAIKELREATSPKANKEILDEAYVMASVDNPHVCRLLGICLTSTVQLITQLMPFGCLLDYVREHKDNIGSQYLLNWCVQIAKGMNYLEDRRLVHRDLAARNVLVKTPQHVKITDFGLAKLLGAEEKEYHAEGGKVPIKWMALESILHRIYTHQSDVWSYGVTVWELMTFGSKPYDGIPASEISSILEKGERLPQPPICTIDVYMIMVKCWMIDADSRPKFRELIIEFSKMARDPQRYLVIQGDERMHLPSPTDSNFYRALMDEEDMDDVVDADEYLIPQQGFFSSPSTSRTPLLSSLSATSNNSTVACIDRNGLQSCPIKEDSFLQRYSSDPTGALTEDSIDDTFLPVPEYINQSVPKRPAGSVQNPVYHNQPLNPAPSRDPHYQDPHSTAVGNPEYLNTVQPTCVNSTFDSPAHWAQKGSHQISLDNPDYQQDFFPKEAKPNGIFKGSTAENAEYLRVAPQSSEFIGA
Chain of Tyrosine-protein kinase CSK (P41240 whole entry): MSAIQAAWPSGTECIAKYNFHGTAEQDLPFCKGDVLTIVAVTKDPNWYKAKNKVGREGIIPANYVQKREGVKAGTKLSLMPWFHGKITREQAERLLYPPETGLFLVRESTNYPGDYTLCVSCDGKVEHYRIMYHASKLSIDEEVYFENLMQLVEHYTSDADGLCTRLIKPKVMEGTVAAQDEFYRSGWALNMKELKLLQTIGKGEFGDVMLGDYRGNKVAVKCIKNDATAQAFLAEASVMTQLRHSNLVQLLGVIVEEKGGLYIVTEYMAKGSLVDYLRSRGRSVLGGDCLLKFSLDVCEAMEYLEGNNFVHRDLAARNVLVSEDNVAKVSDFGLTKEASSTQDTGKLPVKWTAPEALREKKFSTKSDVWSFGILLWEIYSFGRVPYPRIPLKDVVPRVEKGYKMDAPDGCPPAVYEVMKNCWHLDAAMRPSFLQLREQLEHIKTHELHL
Chain of Tyrosine-protein kinase ABL1 (P00519 whole entry): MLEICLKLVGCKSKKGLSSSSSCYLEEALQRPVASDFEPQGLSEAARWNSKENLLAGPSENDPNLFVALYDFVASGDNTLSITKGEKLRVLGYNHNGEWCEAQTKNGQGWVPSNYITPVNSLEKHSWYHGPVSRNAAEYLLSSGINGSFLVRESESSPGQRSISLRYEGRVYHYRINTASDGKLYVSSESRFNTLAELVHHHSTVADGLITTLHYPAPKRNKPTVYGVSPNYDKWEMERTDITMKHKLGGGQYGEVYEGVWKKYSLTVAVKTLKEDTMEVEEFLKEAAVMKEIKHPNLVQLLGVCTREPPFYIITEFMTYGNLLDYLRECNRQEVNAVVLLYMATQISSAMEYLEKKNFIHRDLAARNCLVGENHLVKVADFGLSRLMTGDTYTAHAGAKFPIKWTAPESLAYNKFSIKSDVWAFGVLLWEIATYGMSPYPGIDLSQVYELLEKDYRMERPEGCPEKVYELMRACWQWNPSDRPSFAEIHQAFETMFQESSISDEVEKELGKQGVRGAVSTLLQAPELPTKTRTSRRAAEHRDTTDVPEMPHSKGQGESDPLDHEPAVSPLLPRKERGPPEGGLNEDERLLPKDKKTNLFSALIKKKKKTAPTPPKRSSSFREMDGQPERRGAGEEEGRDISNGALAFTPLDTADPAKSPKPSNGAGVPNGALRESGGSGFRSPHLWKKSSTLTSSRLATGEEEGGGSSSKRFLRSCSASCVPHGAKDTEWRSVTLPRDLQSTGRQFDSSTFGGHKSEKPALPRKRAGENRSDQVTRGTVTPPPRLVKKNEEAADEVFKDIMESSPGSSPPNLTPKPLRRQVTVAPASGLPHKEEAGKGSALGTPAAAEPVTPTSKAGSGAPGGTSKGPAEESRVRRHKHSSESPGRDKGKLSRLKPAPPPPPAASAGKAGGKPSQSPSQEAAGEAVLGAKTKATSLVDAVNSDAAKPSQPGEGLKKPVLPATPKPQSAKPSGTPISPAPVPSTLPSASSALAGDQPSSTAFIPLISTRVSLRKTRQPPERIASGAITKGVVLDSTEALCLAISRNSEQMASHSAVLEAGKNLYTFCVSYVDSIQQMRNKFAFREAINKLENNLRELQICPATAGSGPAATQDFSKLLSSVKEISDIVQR

With `O=c1c(-c2ccc(O)cc2)coc2cc(O)cc(O)c12` [Prunetol], the IC50 (as a rule, the midpoint of a concentration-inhibition curve) is 15 µM in experiment [1], over 100 µM in experiment [2], over 50 µM in experiment [3] and 39 µM in experiment [4].

Regarding `C=CCN1C(=O)C(=C)SC1=NN=c1scc(O)n1C` [Thiazolidine-dione, 1], the IC50 in experiment [5] was 6 µM; in experiment [1] it was over 500 µM; in experiment [2] it was over 500 µM; in experiment [3], 4 µM; in experiment [4], over 100 µM.

Consider `C=C(C)CN1C(=O)C(=C)SC1=NN=c1scc(O)n1C` [Thiazolidine-dione, 2], for which the IC50 in experiment [5] is 1 µM; in experiment [1], over 100 µM; in experiment [2], over 500 µM; in experiment [3], 3 µM; in experiment [4] it was 100 µM.

Turning to `C=C(C)Cn1c(O)c(CN(C)C)sc1=NN=c1scc(O)n1C` [Thiazolidine-dione, 3], the IC50 in experiment [5] was 2 µM; in experiment [1], 350 µM; in experiment [2], over 500 µM; in experiment [3], 7 µM; in experiment [4] it was over 100 µM.

On to `C=C(C)Cn1c(O)csc1=NN=c1scc(O)n1C` [Thiazolidine-dione, 4], for which the IC50 in experiment [5] is over 50 µM; in experiment [1], over 100 µM; in experiment [3], over 100 µM; in experiment [4], over 100 µM.

`C=CCn1c(O)c(C)sc1=NN=c1scc(O)n1C` [Thiazolidine-dione, 5]: the IC50 in experiment [5] is over 50 µM; in experiment [1], over 100 µM; in experiment [3], over 100 µM; in experiment [4] it was over 100 µM.

With `C=C(C)Cn1c(O)c(C)sc1=NN=c1scc(O)n1C` [Thiazolidine-dione, 6], the IC50 is over 50 µM in experiment [5], over 100 µM in experiment [1], over 100 µM in experiment [3] and over 100 µM in experiment [4].

For the compound `C=C(C)Cn1c(O)c(O)sc1=NN=c1scc(O)n1C` [Thiazolidine-dione, 7], the IC50 in experiment [5], in experiment [1], in experiment [3] and in experiment [4] was over 100 µM in each case.

Turning to `C=C(C)Cn1c(O)c(CO)sc1=NN=c1scc(O)n1C` [Thiazolidine-dione, 8], the IC50 in experiment [5] is over 50 µM; in experiment [1], over 100 µM; in experiment [4], over 100 µM.

Consider `C=CCn1c(O)c(CC(=O)O)sc1=NN=c1scc(O)n1C` [Thiazolidine-dione, 9], for which the IC50 in experiment [5], in experiment [1], in experiment [3] and in experiment [4] was over 100 µM throughout.

Consider `C=C(C)Cn1c(O)c(OS(=O)O)sc1=NN=c1scc(O)n1C` [Thiazolidine-dione, 10], for which the IC50 in experiment [5] is 100 µM; in experiment [1], over 100 µM; in experiment [2], over 100 µM; in experiment [3] it was over 100 µM; in experiment [4], over 100 µM.
